Data on three molecules can be found in patent publication US10786525B2, “Method for treating haemorrhage, shock and brain injury” (priority 2013, dated 2020).

Data set [1] concerns isolated guinea-pig mesenteric artery. The data set is described as follows: Pressure myograph relaxation of AVP-constricted mesenteric artery (Example 4). As to conditions: for relaxation of intact artery: 0.001 to 1 mM, luminal or abluminal; for abluminal versus luminal relaxation: adenosine: at 10 μM and 100 μM. As for the experimental part: Male guinea pigs (250-300 g) were anesthetised and placed in a cradle and the abdomen opened. Second order mesenteric artery branches were isolated and mounted in a pressure myograph (see FIG. 4) under constant pressure of 60 mmHg and perfusion (luminal flow) of 100 uL/min with Krebs-Henseleit buffer (37° C.). Artery diameter was continuously measured using videomicroscopy (see FIG. 4). For the relaxation/vasodilation experiments arteries were equilibrated and then constricted with 10^−8 M arginine vasopressin (AVP). Adenosine, lidocaine or adenosine-lidocaine together were administered 2) luminally and 2) abluminally and concentration curves were obtained. Stock solutions of adenosine and lidocaine alone or adenosine-lidocaine combined were made in deionized water to 20 mM. A range of volumes were pipetted to provide contact concentrations with the vessel lumen or outer wall that ranged from 0.001 to 1 mM. At the end of experiments, arteries were dilated using calcium-free solution to obtain 100% relaxation. A number of arteries were denuded by introducing 5 ml air into the lumen with flow rate 1000 μl/min. The air outflow was then clamped until the intraluminal pressure reached 70 mmHg, flow rate was reduced to 2 μl/min and the vessel remained pressurized for 10 minutes

The conditions of data set [2]: oral and/or intravenous 10, 25, 50, and 100 mg/kg; cited from earlier work.

As to `CCN(CC)CC(=O)Nc1c(C)cccc1C` [lidocaine], in data set [1], the “artery diameter in the presence of endothelium” value is on record as “did not significantly change mesenteric artery diameter”, the “relaxation of intact artery” value is given as “failed to produce relaxation” and the “abluminal versus luminal relaxation” value is “no significant difference”. For the same molecule, the “relaxation when endothelium was absent” value in data set [1] (denuded) is given as “relaxed the artery”.
For `Nc1ncnc2c1ncn2[C@@H]1O[C@H](CO)[C@@H](O)[C@H]1O` [adenosine], in data set [1], the “relaxation with or without intact endothelium” value was “relaxed the mesenteric artery in a dose dependent manner”, the “relaxation of intact artery” value is reported as “increased relaxation” and the “abluminal versus luminal relaxation” value is recorded as “significantly more relaxation”.
On to `NC(=O)c1ncn([C@@H]2O[C@H](CO)[C@@H](O)[C@H]2O)c1N` [Acadesine, 5-amino-4-imidazole carboxamide ribonucleoside], for which, in data set [2], the safety in humans result was “safe in humans”.
